Laboratory results: patent US6858399B2, “Test for oxidative stress using cell suspensions” (priority 1998, dated 2005)

Experiments:
[1] = tested on: rat red blood cells; assay: Rat RBC PC biosynthesis; assay type: cell-based; settings: rat RBC's, 10 minutes incubation
[2] = tested on: erythrocytes; settings: Ferrali, et al, Biochem Pharm. 38, 1819-1825 (1989); cited from earlier work
[3] = tested on: human red blood cells; assay: PC biosynthesis of human RBC's; assay type: cell-based; settings: for PC biosynthesis percent of control ± SEM: 30 minutes incubation, 100 mM ethanol, 1 mM APAP, 1 mM THC, 10 mM allyl alcohol, 1 mM cocaine, 1 mM BTM, with and without 4-MP
[4] = tested on: cells isolated from rat intestine; assay: PC biosynthesis in cells isolated from rat intestine; assay type: cell-based; settings: 1 mM APAP, 30 minutes
[5] = tested on: cultured rat liver cells; assay: PC biosynthesis of cultured rat liver cells from 3 and 20 month-old rats, 24 h; assay type: cell-based; settings: 1 mM APAP, 100 mM ETOH, mean ± SEM of nine values; for PC biosynthesis, 3 Month: cells from 3 month-old male rats; for PC biosynthesis, 20 Month: cells from 20 month-old male rats
Procedure: (§1) PC biosynthesis in cultured cells: Aliquots (0.01 ml) of DMSO and water or DMSO and water containing various agents were added to medium with 2-hour monolayers of cells. After the appropriate agent-incubation period, a 0.02 ml aliquot of [^3H]-choline (0.2 μCi and 15 pmoles of choline]) was added to Waymouth 752/1 {1.25 ml} media. Incubations were stopped after 90 minutes by addition of 2 ml of methanol containing 1% 1N HCl. Cells were removed from the culture dishes by scraping with TEFLON™-coated spatula and placed in glass test tubes. (Lamb, et al., Hepatology 19: 174 (1994))
(§2) PC extraction procedure: Two ml of chloroform and 0.5 ml of water were added to each sample. Tubes were vortexed and centrifuged for 5 minutes to clear the upper and lower phases. The upper phase was aspirated and the lower phase washed by adding 2 ml of wash solution containing 50% methanol, 45% water and 5% 7.4% KCl. The samples were vortexed and centrifuged 5 minutes to clear the upper and lower phases. The upper phase was aspirated and the lower phase was washed again in 2 ml wash solution. After the phases were cleared by centrifugation, the lower phase was carefully removed, placed in a glass test tube, dried, solubilized in scintillation fluid and counted in a Beckman beta counter. Agent-induced alterations in the incorporation of labeled choline into PC was used as a measure of changes in cellular PC biosynthesis.

[6] = tested on: cultured astrocyte; assay: Cultured astrocyte PC biosynthesis; assay type: cell-based; settings: for PC biosynthesis, Percent control of + SEM: cultured astrocytes, 100 mM ethanol, 1 mM APAP, 1 mM THC, 1 mM 4-MP, alone or combined
[7] = tested on: human liver cells; assay: PC biosynthesis of human liver cells (labeled choline incorporation into PC); assay type: cell-based; settings: for Alteration in cellular PC biosynthesis: human liver cells incubated 90 minutes, 100 mM ethanol or 1 mM acetaminophen
Procedure: as §1, §2
PC biosynthesis in isolated cells: Aliquots (0.75 ml) of Waymouth 752/1 media were placed in glass test tubes. Aliquots (0.01) of DMSO and water or DMSO and water containing various test agents were added to the tubes along with 0.02 ml [^3H]-choline [0.2 μCi and 15 pmoles choline]. Incubations were started by adding 0.5 ml aliquotes of cells suspended in Waymouth 752/1 media to the test tubes and placing the tubes in a shaking water bath at 37° C. Incubations were stopped after the appropriate incubation period (2-90 minutes) by addition of 2 ml of methanol containing 1% 1N HCl. Labeled PC was extracted by methods described above for cultured cells. […]

[8] = tested on: rat liver cells; assay: PC biosynthesis of rat liver cells (labeled choline incorporation into PC); assay type: cell-based; settings: for Alteration in cellular PC biosynthesis: rat liver cells incubated 90 minutes, 100 mM ethanol or 1 mM acetaminophen
[9] = tested on: cells isolated from rat lung; assay: PC biosynthesis in cells isolated from rat lung; assay type: cell-based; settings: 1 mM APAP, 30 minutes
[10] = tested on: erythrocytes; assay: PC biosynthesis in cells isolated from rat blood (erythrocytes); assay type: cell-based; settings: 1 mM APAP, 30 minutes
Procedure: Preparation of red cell fractions: Rat or human blood was placed in Sorval tubes and, centrifuged at 3000 rpm for 10 minutes under refrigeration. The supernate was removed and the pellet of RBC's resuspended in PBS at 4 times the volume of the supernate. This may be frozen in 2 ml aliquots at −70° C.

[11] = tested on: cultured hepatocytes; assay: PC biosynthesis in primary cultures of adult rat hepatocytes, 72 h incubation; assay type: cell-based; settings: for Change in cellular PC biosynthesis / Effect on the ethanol/acetaminophen-induced decrease in cellular PC biosynthesis: 72 hours; for Change in cellular PC biosynthesis: 100 mM ethanol, 1 mM acetaminophen; for Effect on the ethanol/acetaminophen-induced decrease in cellular PC biosynthesis: co-incubation with 100 mM ethanol or 1 mM acetaminophen
Procedure: Male sprague Dawley rats (Zivic-Miller) weighing 200 to 350 grams were treated with a 50 mg/kg dose of phenobarbital (ip) for 3 days prior to perfusion. During this 3 day period, the animals were also given water ad libitum containing 0.1% sodium phenobarbital. The animal was anesthetized with ether under a fume hood, then transferred to the surgical table with the abdomen exposed. The belly was shaved and cleansed with 70% ethanol and Clinidine. The abdominal skin was removed with scissors and forceps. An incision was made along the base of the abdomen and the renal artery was tied off.
After the hepatic vein was cannulated with a 16 gauge catheter, the liver was washed with a balanced salt solution containing EDTA and Tricine. The hepatic artery was cannulated with a 16 gauge catheter. After 5 minutes of reverse flow perfusion was practiced to facilitate the wash cycle. After the blood is washed from the liver, the color of the liver changes from deep red to a brownish color.
The liver was then infused with Collagenase solution (112.5 mg/300 ml of Waymouth 752/1 media) bubbled with 5% CO2. After 5 minutes, reverse flow of Collagenase into the liver was accomplished, followed by reverse to normal flow after 5 minutes. Normal flow was continued until liver tissue was breaking down and ready for collection. Complete liver wash and perfusion should take about 30 minutes.
The perfused liver was collected with a strainer and transferred to an Erlenmeyer flask containing 50 ml of original Collagenase solution. The liver was minced using a gyratory water bath at 37° C. and allowed to swirl for no longer than 15 minutes. The solution was then filtered through a sterile gauze into centrifuge tubes and spun in a table top centrifuge for 5 minutes at 1000 rpm. (70×g). Aspirate media and suspended cells were placed in Waymouth 752/1 media containing 20% isodensity Percol and were then centrifuged for 4 minutes at 70×g. Cells were washed three times and resuspended in Waymouth 752/1 media. Samples of 0.5 ml were plated on 35 mm collagen-coated plastic culture dishes containing 0.75 ml of supplemented Waymouth 752/1 media.
as §1, §2

[12] = tested on: brain cell fractions; assay: PC biosynthesis of brain cell fractions; assay type: cell-based; settings: brain cell fractions incubated 30 minutes; agent concentration (100 mM ethanol, 1 mM others)
Procedure: as §2
PC biosynthesis in isolated cells: Aliquots (0.75 ml) of Waymouth 752/1 media were placed in glass test tubes. Aliquots (0.01) of DMSO and water or DMSO and water containing various test agents were added to the tubes along with 0.02 ml [^3H]-choline [0.2 μCi and 15 pmoles choline]. Incubations were started by adding 0.5 ml aliquotes of cells suspended in Waymouth 752/1 media to the test tubes and placing the tubes in a shaking water bath at 37° C. Incubations were stopped after the appropriate incubation period (2-90 minutes) by addition of 2 ml of methanol containing 1% 1N HCl. Labeled PC was extracted by methods described above for cultured cells. Agent-induced increases in the incorporation of labeled choline into PC were used to measure increases in cellular PC biosynthesis.
Cells were isolated from brain homogenates according to the methods described in the methodology section under “PC biosynthesis in isolated cells”.

[13] = tested on: cultured liver cells; assay: PC biosynthesis of cultured liver cells incubated 24 and 72 hours with and without vitamin E phosphate; assay type: cell-based; settings: 24 and 72 hours with and without 50 μM vitamin E phosphate
Procedure: After the appropriate agent-incubation period, a 0.02 ml aliquot of [^3H]-choline (0.2 μCi and 15 pmoles of choline]) was added to Waymouth 752/1 {1.25 ml} media. […] Cells were removed from the culture dishes by scraping with TEFLON™-coated spatula and placed in glass test tubes. (Lamb, et al., Hepatology 19: 174 (1994))
Alterations in PC biosynthesis were studied using cultured liver cells incubated 24 and 72 hours with and without 50 μM vitamin E phosphate (VEP).

C=CCO [allyl alcohol]
PC biosynthesis % of Control ± SEM [1]: 1315 ± 99 % of Control
Adverse effects on erythrocytes [2]: could not demonstrate the adverse effects
PC biosynthesis percent of control ± SEM [3]: 377 ± 3% of control

CC(=O)Nc1ccc(O)cc1 [APAP, acetaminophen]
PC biosynthesis percent of control ± SEM, intestine [4]: 287 ± 13% of control
PC biosynthesis, 3 Month [5]: 137 ± 11% of control
PC biosynthesis, 20 Month [5]: 38 ± 2% of control
PC biosynthesis % of Control ± SEM [1]: 655 ± 26 % of Control
PC biosynthesis, Percent control of + SEM [6]: 159 ± 15 Percent control
Alteration in cellular PC biosynthesis [7]: significantly (p<0.05) increase
Alteration in cellular PC biosynthesis [8]: significantly (p<0.05) increased
PC biosynthesis percent of control ± SEM, lung [9]: 471 ± 38% of control
PC biosynthesis percent of control ± SEM, erythrocytes [10]: 236 ± 13% of control
PC biosynthesis percent of control ± SEM [3]: 512 ± 27% of control
Change in cellular PC biosynthesis [11]: significant decrease

C=CC(=O)O [acrylic acid]
Adverse effects on erythrocytes [2]: could not demonstrate the adverse effects

Cc1c(C)c2c(c(C)c1OC(=O)CCC(=O)O)CC[C@@](C)(CCC[C@H](C)CCC[C@H](C)CCCC(C)C)O2 [VES, vitamin E succinate]
Effect on the ethanol/acetaminophen-induced decrease in cellular PC biosynthesis [11]: reduced

CCO [ethanol]
PC biosynthesis, 3 Month [5]: 147 ± 13% of control
PC biosynthesis, 20 Month [5]: 59 ± 1% of control
Agent-induced alterations in PC biosynthesis, Percent control of + SEM [12]: 173 ± 8 Percent control
PC biosynthesis % of Control ± SEM [1]: 374 ± 19 % of Control
PC biosynthesis, Percent control of + SEM [6]: 199 ± 14 Percent control
Alteration in cellular PC biosynthesis [7]: significantly (p<0.05) increase
Alteration in cellular PC biosynthesis [8]: significantly (p<0.05) increased
PC biosynthesis percent of control ± SEM [3]: 222 ± 9% of control
PC biosynthesis ([11]; 72 h, 100 mM ETOH, 1 mM APAP, 0.5 mM 4-MP, 200 units SOD, 800 units CAT, 2 mM DEF, 0.025 mM 20:4, 0.25 mM 16:0, 6-9 experimental values): 39 ± 2% of control
Change in cellular PC biosynthesis [11]: significant decrease

COC(=O)[C@H]1[C@@H](OC(=O)c2ccccc2)C[C@@H]2CC[C@H]1N2C [cocaine]
PC biosynthesis % of Control ± SEM [1]: 458 ± 7 % of Control
PC biosynthesis percent of control ± SEM [3]: 292 ± 10% of control

C=CC=O [acreolein]
Adverse effects on erythrocytes [2]: deleterious effects on the cells

Cc1c(C)c2c(c(C)c1OP(=O)(O)O)CCC(C)(CCCC(C)CCCC(C)CCCC(C)C)O2 (stereo not drawn) [vitamin E phosphate]
Alterations in PC biosynthesis [13]: incubation time-dependent decreases in PC biosynthesis unless vitamin E phosphate was added

ClC(Cl)(Cl)Br [BTM, bromotrichloromethane]
Agent-induced alterations in PC biosynthesis, Percent control of + SEM [12]: 194 ± 25 Percent control
PC biosynthesis % of Control ± SEM [1]: 533 ± 29 % of Control
PC biosynthesis percent of control ± SEM [3]: 728 ± 3% of control

iron
PC biosynthesis % of Control ± SEM [1]: 919 ± 73 % of Control

Cc1cn[nH]c1 [4-MP, 4-methylpyrazole]
Effect on agent-induced increase in PC biosynthesis ([6]; 1 mM 4-MP with ethanol, APAP, THC or combinations): Å values without 4-MP are significantly increased (p < 0.05) above controls. 4-MP significantly reduced (p < 0.05) the agent-induced increase in PC biosynthesis.
Effect on ethanol and acetaminophen-induced increases in cellular PC biosynthesis ([7]; 1 mM 4-methylpyrazole, 90 minutes, with 100 mM ethanol or 1 mM acetaminophen): significantly decreases
Effect on ethanol-induced and acetaminophen-induced increases in cellular biosynthesis ([8]; 4-methylpyrazole, 90 minutes, with 100 mM ethanol or 1 mM acetaminophen): significantly reduced
Effect on drug-induced increases in PC biosynthesis ([3]; 30 minutes, 4-MP added to each agent): significantly (p<0.05) reduces
Effect on the ethanol/acetaminophen-induced decrease in cellular PC biosynthesis [11]: reduced

O=S(=O)([O-])[O-].[Fe+2] [FeSO4]
Agent-induced alterations in PC biosynthesis, Percent control of + SEM [12]: 226 ± 8 Percent control

CCCCCc1cc(O)c2c(c1)OC(C)(C)[C@@H]1CCC(C)=C[C@@H]21 [THC, Δ-9-tetrahydrocannabinol]
Agent-induced alterations in PC biosynthesis, Percent control of + SEM [12]: 293 ± 21 Percent control
PC biosynthesis % of Control ± SEM [1]: 1142 ± 65 % of Control
PC biosynthesis, Percent control of + SEM [6]: 201 ± 11 Percent control
PC biosynthesis percent of control ± SEM [3]: 433 ± 30% of control

B1: CAT: catalase (protein, UniProt P00432 2-527, looked up)
Catalase: ADNRDPASDQMKHWKEQRAAQKPDVLTTGGGNPVGDKLNSLTVGPRGPLLVQDVVFTDEMAHFDRERIPERVVHAKGAGAFGYFEVTHDITRYSKAKVFEHIGKRTPIAVRFSTVAGESGSADTVRDPRGFAVKFYTEDGNWDLVGNNTPIFFIRDALLFPSFIHSQKRNPQTHLKDPDMVWDFWSLRPESLHQVSFLFSDRGIPDGHRHMNGYGSHTFKLVNANGEAVYCKFHYKTDQGIKNLSVEDAARLAHEDPDYGLRDLFNAIATGNYPSWTLYIQVMTFSEAEIFPFNPFDLTKVWPHGDYPLIPVGKLVLNRNPVNYFAEVEQLAFDPSNMPPGIEPSPDKMLQGRLFAYPDTHRHRLGPNYLQIPVNCPYRARVANYQRDGPMCMMDNQGGAPNYYPNSFSAPEHQPSALEHRTHFSGDVQRFNSANDDNVTQVRTFYLKVLNEEQRKRLCENIAGHLKDAQLFIQKKAVKNFSDVHPEYGSRIQALLDKYNEEKPKNAVHTYVQHGSHLSAREKANL
Effect on the ethanol/acetaminophen-induced decrease in cellular PC biosynthesis [11]: reduced
